Experimental data from PubChem BioAssay (NCI).
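Tested at 5 concentrations; 48 h exposure; 96-well plates; endpoints linearly interpolated, else capped at highest concentration. The concentration for 50% growth inhibition is given as GI50. TGI is the concentration that stops growth completely.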

Key:
Experiment in all cases: NCI-60 cell line screen, 48 h
786-0 renal = system: 786-0 renal
A498 renal = system: A498 renal
A549 NSCLC = system: A549 NSCLC
ACHN renal = system: ACHN renal
BT-549 breast = system: BT-549 breast
CAKI-1 renal = system: CAKI-1 renal
CCRF-CEM leukemia = system: CCRF-CEM leukemia
COLO 205 colon = system: COLO 205 colon
DU-145 prostate = system: DU-145 prostate
EKVX NSCLC = system: EKVX NSCLC
HCC-2998 colon = system: HCC-2998 colon
HCT-116 colon = system: HCT-116 colon
HCT-15 colon = system: HCT-15 colon
HL-60(TB) leukemia = system: HL-60(TB) leukemia
HOP-62 NSCLC = system: HOP-62 NSCLC
HOP-92 NSCLC = system: HOP-92 NSCLC
HS 578T breast = system: HS 578T breast
HT29 colon = system: HT29 colon
IGROV1 ovarian = system: IGROV1 ovarian
K-562 leukemia = system: K-562 leukemia
KM12 colon = system: KM12 colon
LOX IMVI melanoma = system: LOX IMVI melanoma
M14 melanoma = system: M14 melanoma
MALME-3M melanoma = system: MALME-3M melanoma
MCF7 breast = system: MCF7 breast
MDA-MB-231 breast = system: MDA-MB-231 breast
MDA-MB-435 = system: MDA-MB-435
MDA-MB-468 breast = system: MDA-MB-468 breast
MOLT-4 leukemia = system: MOLT-4 leukemia
NCI-H226 lung = system: NCI-H226 lung

Compound: CC1[C@H]2[C@H](C[C@H]3[C@@H]4CC=C5c6sc(Nc7ccccc7F)nc6CC[C@]5(C)[C@H]4CC[C@@]32C)O[C@]12CC[C@@H](C)CO2 (some centres undefined)
- GI50 (786-0 renal): 85.4 µM
- TGI (786-0 renal): > 100 µM
- GI50 (A498 renal): > 100 µM
- TGI (A498 renal): > 100 µM
- GI50 (A549 NSCLC): > 100 µM
- TGI (A549 NSCLC): > 100 µM
- GI50 (ACHN renal): > 100 µM
- TGI (ACHN renal): > 100 µM
- GI50 (BT-549 breast): 26.4 µM
- TGI (BT-549 breast): > 100 µM
- GI50 (CAKI-1 renal): > 100 µM
- TGI (CAKI-1 renal): > 100 µM
- GI50 (CCRF-CEM leukemia): 5.1 µM
- TGI (CCRF-CEM leukemia): > 100 µM
- GI50 (COLO 205 colon): 62.1 µM
- TGI (COLO 205 colon): > 100 µM
- GI50 (DU-145 prostate): > 100 µM
- TGI (DU-145 prostate): > 100 µM
- GI50 (EKVX NSCLC): > 100 µM
- TGI (EKVX NSCLC): > 100 µM
- GI50 (HCC-2998 colon): > 100 µM
- TGI (HCC-2998 colon): > 100 µM
- GI50 (HCT-116 colon): 37.3 µM
- TGI (HCT-116 colon): > 100 µM
- GI50 (HCT-15 colon): 56.1 µM
- TGI (HCT-15 colon): > 100 µM
- GI50 (HL-60(TB) leukemia): 30.1 µM
- TGI (HL-60(TB) leukemia): > 100 µM
- GI50 (HOP-62 NSCLC): > 100 µM
- TGI (HOP-62 NSCLC): > 100 µM
- GI50 (HOP-92 NSCLC): 42.3 µM
- TGI (HOP-92 NSCLC): > 100 µM
- GI50 (HS 578T breast): > 100 µM
- TGI (HS 578T breast): > 100 µM
- GI50 (HT29 colon): 60.3 µM
- TGI (HT29 colon): > 100 µM
- GI50 (IGROV1 ovarian): > 100 µM
- TGI (IGROV1 ovarian): > 100 µM
- GI50 (K-562 leukemia): 26.6 µM
- TGI (K-562 leukemia): > 100 µM
- GI50 (KM12 colon): > 100 µM
- TGI (KM12 colon): > 100 µM
- GI50 (LOX IMVI melanoma): 67.1 µM
- TGI (LOX IMVI melanoma): > 100 µM
- GI50 (M14 melanoma): 86.7 µM
- TGI (M14 melanoma): > 100 µM
- GI50 (MALME-3M melanoma): > 100 µM
- TGI (MALME-3M melanoma): > 100 µM
- GI50 (MCF7 breast): 38.2 µM
- TGI (MCF7 breast): > 100 µM
- GI50 (MDA-MB-231 breast): > 100 µM
- TGI (MDA-MB-231 breast): > 100 µM
- GI50 (MDA-MB-435): 95.4 µM
- TGI (MDA-MB-435): > 100 µM
- GI50 (MDA-MB-468 breast): 25.1 µM
- TGI (MDA-MB-468 breast): > 100 µM
- GI50 (MOLT-4 leukemia): 25.7 µM
- TGI (MOLT-4 leukemia): > 100 µM
- GI50 (NCI-H226 lung): > 100 µM
